Common to all, as to assay type: cell-based, human
The test system of one assay is NB-4 leukemic cell line. The assay can be described thus: MTT assay. The note with it: 48 h, read-out: MTT50. In general terms: Formazan colour is commonly taken as a measure of viable cells.
Assay [1] relates to W1 leukemic cell line. The assay can be described thus: MTT assay. The note with it: 48 h, read-out: MTT50.
In the next assay the test system is AML-2 leukemic cell line. The assay can be described thus: MTT assay. The note with it: 48 h, read-out: MTT50.
Assay [2] deals with W1 leukemic cell line. The assay can be described thus: Fixed propidium iodide staining, flow cytometry. The note with it: 48 h.
A further assay concerns B1 leukemic cell line. The assay can be described thus: Fixed propidium iodide staining, flow cytometry. The note with it: 48 h. A general note: A flow cytometer gives signals particle by particle.
Assay [3] deals with G2 leukemic cell line. The assay can be described thus: Fixed propidium iodide staining, flow cytometry. The note with it: 48 h.
Assay [4] relates to G2 leukemic cell line. The assay can be described thus: MTT assay. The note with it: Homo sapiens, 48 h, read-out: MTT50.

Like-named read-outs stand apart in the source and are kept apart here.

On to `CSSCS(=O)(=O)c1ccc(C)cc1` [Compound C, α-p-toluenesulfonyl dimethyl disulphide], for which the IC50 was found to be 11.7 µM in the assay on NB-4 leukemic cell line (NB-4), 8.7 µM with W1 leukemic cell line [1] and 13.2 µM in the assay on AML-2 leukemic cell line.

Regarding `CSCSSC` [Compound N, 2,3,5-trithiahexane], the IC50 with NB-4 leukemic cell line (Homo sapiens) was 60.8 µM. In addition, the “% G2 increase (Fixed PI)” value in the assay with W1 leukemic cell line [2] (dose 50 uM) is listed as “+10%”; with B1 leukemic cell line (dose 50 uM), “+2%”; in the assay on B1 leukemic cell line (dose 150 uM), −1%; with G2 leukemic cell line [3] (dose 50 uM), “+8%”; in the assay with G2 leukemic cell line [3] (dose 150 uM), “+8%”. Further, the “% pre-G1 (Fixed PI)” value was determined as 22% in the assay on W1 leukemic cell line [2] (dose 50 uM); 33% with W1 leukemic cell line [2] (dose 150 uM); 35% in the assay on B1 leukemic cell line (dose 150 uM); 16% in the assay on G2 leukemic cell line [3] (dose 50 uM); 29% in the assay with G2 leukemic cell line [3] (dose 150 uM).

Turning to `CSSCC(=O)c1ccccc1` [Compound P, phenacyl methyl disulphide], the IC50 with NB-4 leukemic cell line (Homo sapiens, NB-4) is 60.8 µM. Besides, the “% pre-G1 (Fixed PI)” value in the assay on W1 leukemic cell line [2] (dose 50 uM) is listed as 14%; in the assay with W1 leukemic cell line [2] (dose 150 uM) it was 55%; with B1 leukemic cell line (dose 50 uM), 52%; with B1 leukemic cell line (dose 150 uM) it was 80%; with G2 leukemic cell line [3] (dose 50 uM) it was 6%; in the assay with G2 leukemic cell line [3] (dose 150 uM), 63%.

As to `CCC(=O)OCSSc1ccccc1` [Compound Q, 1-phenyl-1,2-dithiapropyl propionate], the IC50 in the assay on W1 leukemic cell line [1] (Homo sapiens) came out at 13 µM; in the assay with G2 leukemic cell line [4], 14.7 µM. Moreover, the “% G2 increase (Fixed PI)” value in the assay on W1 leukemic cell line [2] (dose 20 uM) is listed as “+4%”; in the assay on W1 leukemic cell line [2] (dose 40 uM), “+12%”; in the assay on B1 leukemic cell line (dose 20 uM), 0%; in the assay with B1 leukemic cell line (dose 40 uM) it was −3%; with G2 leukemic cell line [3] (dose 20 uM), −1%; with G2 leukemic cell line [3] (dose 40 uM), −3%. Besides, the “% pre-G1 (Fixed PI)” value in the assay with W1 leukemic cell line [2] (dose 20 uM) is 20%; in the assay with W1 leukemic cell line [2] (dose 40 uM), 49%; with B1 leukemic cell line (dose 20 uM) it was 5%; in the assay with B1 leukemic cell line (dose 40 uM), 20%; in the assay with G2 leukemic cell line [3] (dose 20 uM), 31%; in the assay on G2 leukemic cell line [3] (dose 40 uM) it was 55%.

For the compound `CS(=O)(=O)CSSc1ccccc1` [E, 5-phenyl-2,4,5-trithiapentane 2,2-dioxide], the IC50 with NB-4 leukemic cell line (Homo sapiens, NB-4) was 25.4 µM; in the assay on AML-2 leukemic cell line (Homo sapiens), 15.6 µM; in the assay on G2 leukemic cell line [4] it was 3.6 µM.

As for `CSSCCS(C)(=O)=O` [F, 2,3,6-trithiaheptane 6,6,-dioxide], the IC50 in the assay on AML-2 leukemic cell line was 37.6 µM.

Take `CSSc1ccc([N+](=O)[O-])cc1` [M, methyl p-nitrophenyl disulphide]: the IC50 is 21.2 µM with NB-4 leukemic cell line (Homo sapiens, NB-4); 4.8 µM in the assay with W1 leukemic cell line [1] (Homo sapiens); 11.3 µM in the assay on G2 leukemic cell line [4]. Moreover, the “% pre-G1 (Fixed PI)” value is on record as 9% in the assay on W1 leukemic cell line [2] (dose 20 uM); 28% in the assay on W1 leukemic cell line [2] (dose 40 uM); 70% with B1 leukemic cell line (dose 20 uM); 76% with B1 leukemic cell line (dose 40 uM); 10% in the assay with G2 leukemic cell line [3] (dose 20 uM); 43% with G2 leukemic cell line [3] (dose 40 uM).
